Here are results for one compound from patent EP0748335B1, “ANTIBIOTIC STALOBACINS” (SHIONOGI & CO., LTD., priority 1994, dated 1995).

Values after ≈ are worked out from the molar mass of the structure shown.

One assay has as its system S. aureus 3626 (MRSA). As to the kind of experiment: In vitro antibacterial activity, agar dilution method. Particulars: 10^6 cfu/ml. It is filed as cell-based. The protocol: (§1) Antibacterial activity in vitro of antibiotic stalobacins H and I obtained in Example 1 was assayed by the agar dilution method.
For a further assay, the system named is S. aureus FDA JC-1. The description is as above. The following applies: 10^6 cfu/ml. It is filed as cell-based. The protocol:
as §1

A further assay has as its system S. faecalis SR1004. The description is as above. Type of assay: cell-based. Particulars: 10^6 cfu/ml. The protocol:
as §1

For assay [1], the system named is E. faecalis SR1004. The assay is described as follows: Protective effect in systemically infected mice. Particulars: mice challenged intraperitoneally with E. faecalis SR1004; subcutaneous administration one hour after challenge; survival ratio on 7th day. It is filed as in vivo. As for the experimental part: (§2) Antibacterial activity in vivo of stalobacin I was assayed. Mice were intraperitoneally challenged with infectious bacteria. One hour after the challenge, the test compound was subcutaneously administered. ED50 values was calculated on the basis of survival ratio on 7th day after the challenge. MIC was determined according to the agar dilution method.

Assay [2] concerns S. aureus SR3637 (H-MRSA). As to the kind of experiment: Protective effect in systemically infected mice. Type of assay: in vivo. Particulars: mice challenged intraperitoneally with S. aureus SR3637 (H-MRSA); subcutaneous administration one hour after challenge; survival ratio on 7th day. As for the experimental part:
as §2

Assay [3] has as its system S. pneumoniae Type I. As to the kind of experiment: Protective effect in systemically infected mice. The following applies: mice challenged intraperitoneally with S. pneumoniae Type I; subcutaneous administration one hour after challenge; survival ratio on 7th day. Type of assay: in vivo. The protocol: as §2
In assay [4] the test system is E. faecalis SR1004. It is filed as cell-based. As for the experimental part: as §2
Assay [5] concerns S. aureus SR3637 (H-MRSA). It is filed as cell-based. As for the experimental part:
as §2

Assay [6] has as its system S. pneumoniae Type I. It is filed as cell-based. The protocol: as §2

The term ED50 denotes the midpoint of the dose-response relation. In general, MIC refers to the lowest concentration found to suppress growth. Higher therefore signals weaker potency.

For `CCCCCC/C=C\CCCCC[C@@H]1C[C@H]1/C=C/C(O)C(=O)N[C@H](C(=O)N(C)[C@@H](CC(=O)O)C(=O)N(COC(C)(CC)C(NC(=O)C(NC(=O)[C@@H](N)CC(=O)O)C(O)C(O)CNC(=N)N)C(=O)NCC(=O)N[C@@H](CO)C(=O)O)[C@@]12C[C@@H]1CN(C(=N)N)C2=O)[C@H](O)C(=O)O` (stereo partly drawn) [Stalobacin I], the “Antibacterial activity in vitro” value in the assay on S. aureus 3626 (MRSA) came to 0.1 µg/mL; in the assay with S. aureus FDA JC-1 it was 0.05 µg/mL; in the assay with S. faecalis SR1004 it was 0.2 µg/mL. Moreover, the results for the ED50 (in the assay with E. faecalis SR1004 [1]; in [2]; with S. pneumoniae Type I [3]) were 1.50 mg/kg, 0.12 mg/kg and 0.046 mg/kg, respectively. For the same compound, the minimum inhibitory concentration (MIC) against E. faecalis SR1004 [4] came out at 0.2 µg/mL (≈ 151 nM); in assay [5], 0.012 µg/mL (≈ 9.05 nM); against S. pneumoniae Type I [6] it was 0.006 µg/mL (≈ 4.53 nM).
